In general, IC50 refers to the midpoint of a concentration-inhibition curve.

The values that follow come from ChEMBL document CHEMBL5727827, “PD-1/PD-L1 inhibitors” (2020).

The target of the test is Programmed cell death protein 1/Programmed cell death 1 ligand 1 (Homo sapiens, UniProt Q15116+Q9NZQ7). The experiment in a line: Binding of the protein pairs is measured using a bead based Amplified Luminescent Proximity Homogeneous Assay (ALPHA) platform. Binding of each protein pair results in proximity of the donor and acceptor beads which leads to an increase in ALPHA signal. […] Assays are performed in 25 mM Hepes (pH 7.4), 150 mM NaCl, 3.4 mM EDTA, 0.005% Tween 20, and 0.01% BSA. […] After an assay reaction time of 60 minutes at 25° C., binding was measured with addition of 20 μg/mL ALPHA assay acceptor beads (anti-His coated) and 20 µg/mL ALPHA assay donor beads (streptavidin coated). IC50 values were calculated from the fit of the dose-response curves to a four-parameter equation. The format is protein-complex assay.
Sequence of Programmed cell death protein 1/Programmed cell death 1 ligand 1 (Q15116 whole entry): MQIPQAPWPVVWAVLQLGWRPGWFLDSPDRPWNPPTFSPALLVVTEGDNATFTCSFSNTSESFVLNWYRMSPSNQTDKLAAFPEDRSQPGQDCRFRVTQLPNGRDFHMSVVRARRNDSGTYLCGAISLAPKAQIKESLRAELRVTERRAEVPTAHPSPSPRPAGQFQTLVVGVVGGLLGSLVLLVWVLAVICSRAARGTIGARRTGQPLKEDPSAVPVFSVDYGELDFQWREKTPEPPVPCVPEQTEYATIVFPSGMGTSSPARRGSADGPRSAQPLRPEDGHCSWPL
Sequence of Programmed cell death protein 1/Programmed cell death 1 ligand 1 (Q9NZQ7 whole entry): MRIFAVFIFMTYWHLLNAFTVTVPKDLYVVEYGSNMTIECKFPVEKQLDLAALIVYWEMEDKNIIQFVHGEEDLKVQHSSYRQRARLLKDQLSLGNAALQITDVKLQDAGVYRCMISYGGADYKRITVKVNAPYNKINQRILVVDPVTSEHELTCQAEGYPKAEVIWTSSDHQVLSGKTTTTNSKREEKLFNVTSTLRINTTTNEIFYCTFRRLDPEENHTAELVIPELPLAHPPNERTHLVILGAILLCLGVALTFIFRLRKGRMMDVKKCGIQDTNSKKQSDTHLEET

On to `COc1nc(-c2cccc(-c3cccc(-c4cnc(CN5CC(C(C)(C)O)C5)c(OC)n4)c3Cl)c2Cl)cnc1CN`, for which the concentration for half-maximal inhibition (IC50) is 0.346 nM.
